{"source": "paper PMC6925188", "about": "“PBRM1 acts as a p53 lysine-acetylation reader to suppress renal tumor growth” (Nature Communications, 2019)", "key": {"SLR24 cells": {"tested_on": "SLR24 cells", "experiment": "Immunoblot of p53 targets, PBRM1-null SLR24 cells", "type": "cell-based", "details": "50 μM etoposide", "protocol": "The band intensity of indicated protein was measured with Bio-rad Image Lab 4.1, and the relative ratios were calculated over the signal intensity of Vinculin in the corresponding lanes. c–e. Nude mice xenograft analyses were performed with Ren-01 PBRM1 KO cells expressing GFP (left flank) or PBRM1 (right flank). Representative photographs of a mouse (c, top) and tumors (c, bottom). Tumors were excised and weighed, and data are presented as mean ± SEM (d). p-values were calculated using the paired two-tailed Student’s t-test. Tumors were stained for PBRM1 and p21 expression via IHC (e). Scale bar: 200 μm. f–h Nude mice xenograft analyses were performed with Ren-01 PBRM1 KO cells expressing wild-type PBRM1 (left flank) or the BD4* mutant PBRM1 (right flank). Tumors were excised and weighed, and data are presented as mean ± SEM (g). p-values were calculated using the paired two-tailed Student’s t-test. Representative photographs of a mouse (f, top) and tumors (f, bottom). Tumors were stained for PBRM1 and p21 expression via IHC analysis (h). Scale bar: 200 μm. Source data are provided as a Source Data file.\n(§1) After washing with ice-cold PBS, cells were scraped on ice and centrifuged at 10,000 × g for 1 min at 4 °C. For immunoblot analysis, cell pellets were lysed in 1% SDS containing a protease inhibitor cocktail followed by sonication with a FB50 sonic dismembrator (Fisher Scientific) at 20% amplitude for 15 s twice. After centrifuging for 10 min at 14,000 × g, the supernatants were combined with 5X SDS loading buffer (5% mercaptoethanol, 0.05% Bromophenol blue, 30% glycerol, 10% SDS, 250 mM Tris-HCl (pH 6.8)), boiled for 5 min and used in SDS-PAGE. After standard western blot procedures, the blots were developed using the ImageQuant LAS 4000 (GE healthcare Life Sciences) or ChemiDoc MP Imaging System (Bio-rad) with HyGLO™ Chemiluminescent HRP Detection Reagent (E2500, Denville Scientific) or Immobilon™ Western Chemiluminescent HRP Substrate (WBKLS0500, Millipore)."}, "endogenous PBRM1 and p53": {"tested_on": "endogenous PBRM1 and p53", "experiment": "Endogenous p53 immunoprecipitation, HEK293 cells", "type": "cell-based, human", "details": "50 μM, 8 h", "source_text": "Fig. 1 PBRM1 and p53 display a physical association that is enhanced after DNA damage. a U2OS cells (left) and HEK293T cells (right) were transfected with vector or Flag-PBRM1 and harvested for immunoprecipitation with Flag-M2 beads and elution with 3X Flag peptide. […] Lysates were subjected to immunoprecipitation with Flag-M2 beads. […] Lysates were immunoprecipitated with p53 antibody. The bound PBRM1 and p53 were examined by immunoblots. Source data are provided as a Source Data file."}, "PBRM1 binding to CDKN1A": {"tested_on": "PBRM1 binding to CDKN1A", "experiment": "ChIP-qPCR, Flag antibody (Flag-PBRM1), CDKN1A gene, RCC4 cells", "type": "cell-based", "design": "unit not given here", "details": "100 μM, 24 h", "protocol": "(§2) Lysates were analyzed by immunoblots. c RCC4 cells with or without p53 KO were transfected with vector or Flag-PBRM1 at the indicated amounts. […] Cells were harvested for RT-qPCR (g) or ChIP followed by qPCR (h). […] Representative data is shown in i. Quantification of cell cycle phase is shown in j. Source data are provided as a Source Data file.\nChIP assays were performed with the Pierce Agarose ChIP Kit (26156, Thermo Scientific) according to the manufacturer’s instructions with minor revisions. In brief, samples were crosslinked with 1% paraformaldehyde and halted by 125 mM glycine. After washing twice with ice-cold PBS, cells were harvested and suspended in Lysis Buffer 1 and incubated on ice for 10 min. 1 × 10^7 nuclei were resuspended in 500 μl MNase Digestion Buffer containing 6.25 U Micrococcal Nuclease and incubated at 37 °C for 15 min. After the reaction was stopped, nuclei were pelleted by centrifugation and resuspended in 250 μl Lysis Buffer 2. Nuclei were sonicated at 10% amplitude for 10 s twice and incubated on ice for 30 min. After centrifugation, 50 μl supernatant containing the digested chromatin from 2 × 10^6 nuclei was diluted in 1× IP Dilution Buffer and incubated with antibodies (normal rabbit IgG for control, 1 μg FL393 + 1 μg DO-1 for p53 or 2 μg Flag M2 for Flag-PBRM1) overnight at 4 °C. […] of ChIP Grade Protein A/G Plus Agarose was added and incubated for 1 h at 4 °C. The agarose resins were washed once with IP Wash Buffer 1, twice with IP Wash Buffer 2 and once with IP Wash Buffer 3. 150 μl 1× IP Elution Buffer was added to the washed resin and incubated at 65 °C for 30 min with shaking. The eluate was treated with Proteinase K and DNA was extracted with columns provided in the kit."}, "RCC4 cells": {"tested_on": "RCC4 cells", "details": "100 μM etoposide", "protocol": "as §2\nas §1, with “Millipore). […]” for “Millipore).”\nthe indicated times. Lysates were analyzed via immunoblots. b. […]\nwere analyzed by immunoblots. c. […]\nLysates were analyzed via immunoblots. e. […]\nLysates were analyzed via immunoblots. f, g, h. […]"}}, "data": [{"molecule": "COc1cc([C@@H]2c3cc4c(cc3[C@@H](O[C@@H]3O[C@@H]5CO[C@@H](C)O[C@H]5[C@H](O)[C@H]3O)[C@H]3COC(=O)[C@H]23)OCO4)cc(OC)c1O", "note": "[Etoposide]", "values": [{"measurement": "p21, PUMA and MDM2 expression after DNA damage, wild-type vs BD4* PBRM1 or GFP", "setting": "SLR24 cells; SLR24", "result": "significantly induced by wild-type but not BD4* mutant PBRM1 or GFP"}, {"measurement": "p21 or PUMA induction", "setting": "SLR24 cells; SLR24 cells", "result": "barely"}, {"measurement": "p21 and PUMA induction with PBRM1-BD4*", "setting": "SLR24 cells; SLR24 expressing PBRM1-BD4*", "result": "failed to induce their expression"}, {"measurement": "p21 and PUMA induction with PBRM1-wt", "setting": "SLR24 cells; SLR24 expressing PBRM1-wt, all time points", "result": "strongly induced"}, {"measurement": "endogenous PBRM1 precipitated by p53", "setting": "endogenous PBRM1 and p53", "result": "increased the amount of endogenous PBRM1 precipitated"}, {"measurement": "Flag ChIP at CDKN1A-RE1", "setting": "PBRM1 binding to CDKN1A; RCC4-GFP, assay 1", "result": 0.0131}, {"measurement": "Flag ChIP at CDKN1A-TSS", "setting": "PBRM1 binding to CDKN1A; RCC4-GFP, assay 1", "result": 0.013}, {"measurement": "Flag ChIP at CDKN1A-intron", "setting": "PBRM1 binding to CDKN1A; RCC4-GFP, assay 1", "result": 0.0279}, {"measurement": "Flag ChIP at CDKN1A-RE1", "setting": "PBRM1 binding to CDKN1A; RCC4-GFP, assay 2", "result": 0.0381}, {"measurement": "Flag ChIP at CDKN1A-TSS", "setting": "PBRM1 binding to CDKN1A; RCC4-GFP, assay 2", "result": 0.0086}, {"measurement": "Flag ChIP at CDKN1A-intron", "setting": "PBRM1 binding to CDKN1A; RCC4-GFP, assay 2", "result": 0.0296}, {"measurement": "Flag ChIP at CDKN1A-RE1", "setting": "PBRM1 binding to CDKN1A; RCC4-GFP, assay 3", "result": 0.0109}, {"measurement": "Flag ChIP at CDKN1A-TSS", "setting": "PBRM1 binding to CDKN1A; RCC4-GFP, assay 3", "result": 0.0269}, {"measurement": "Flag ChIP at CDKN1A-intron", "setting": "PBRM1 binding to CDKN1A; RCC4-GFP, assay 3", "result": 0.0971}, {"measurement": "Flag ChIP at CDKN1A-RE1", "setting": "PBRM1 binding to CDKN1A; RCC4-PBRM1-BD4*, assay 1", "result": 0.1332}, {"measurement": "Flag ChIP at CDKN1A-TSS", "setting": "PBRM1 binding to CDKN1A; RCC4-PBRM1-BD4*, assay 1", "result": 0.204}, {"measurement": "Flag ChIP at CDKN1A-intron", "setting": "PBRM1 binding to CDKN1A; RCC4-PBRM1-BD4*, assay 1", "result": 0.0594}, {"measurement": "Flag ChIP at CDKN1A-RE1", "setting": "PBRM1 binding to CDKN1A; RCC4-PBRM1-BD4*, assay 2", "result": 0.168}, {"measurement": "Flag ChIP at CDKN1A-TSS", "setting": "PBRM1 binding to CDKN1A; RCC4-PBRM1-BD4*, assay 2", "result": 0.1814}, {"measurement": "Flag ChIP at CDKN1A-intron", "setting": "PBRM1 binding to CDKN1A; RCC4-PBRM1-BD4*, assay 2", "result": 0.0845}, {"measurement": "Flag ChIP at CDKN1A-RE1", "setting": "PBRM1 binding to CDKN1A; RCC4-PBRM1-BD4*, assay 3", "result": 0.1906}, {"measurement": "Flag ChIP at CDKN1A-TSS", "setting": "PBRM1 binding to CDKN1A; RCC4-PBRM1-BD4*, assay 3", "result": 0.171}, {"measurement": "Flag ChIP at CDKN1A-intron", "setting": "PBRM1 binding to CDKN1A; RCC4-PBRM1-BD4*, assay 3", "result": 0.0675}, {"measurement": "Flag ChIP at CDKN1A-RE1", "setting": "PBRM1 binding to CDKN1A; RCC4-PBRM1, assay 1", "result": 0.118}, {"measurement": "Flag ChIP at CDKN1A-TSS", "setting": "PBRM1 binding to CDKN1A; RCC4-PBRM1, assay 1", "result": 0.1053}, {"measurement": "Flag ChIP at CDKN1A-intron", "setting": "PBRM1 binding to CDKN1A; RCC4-PBRM1, assay 1", "result": 0.1192}, {"measurement": "Flag ChIP at CDKN1A-RE1", "setting": "PBRM1 binding to CDKN1A; RCC4-PBRM1, assay 2", "result": 0.114}, {"measurement": "Flag ChIP at CDKN1A-TSS", "setting": "PBRM1 binding to CDKN1A; RCC4-PBRM1, assay 2", "result": 0.1575}, {"measurement": "Flag ChIP at CDKN1A-intron", "setting": "PBRM1 binding to CDKN1A; RCC4-PBRM1, assay 2", "result": 0.074}, {"measurement": "Flag ChIP at CDKN1A-RE1", "setting": "PBRM1 binding to CDKN1A; RCC4-PBRM1, assay 3", "result": 0.1263}, {"measurement": "Flag ChIP at CDKN1A-TSS", "setting": "PBRM1 binding to CDKN1A; RCC4-PBRM1, assay 3", "result": 0.1136}, {"measurement": "Flag ChIP at CDKN1A-intron", "setting": "PBRM1 binding to CDKN1A; RCC4-PBRM1, assay 3", "result": 0.066}, {"measurement": "p21 enhancement by PBRM1 BD4* mutant after p53 activation", "setting": "RCC4 cells", "result": "failed to enhance p21 expression"}]}]}
